Measured values: the NIST ThermoML archive (doi:10.1007/s10765-007-0223-x)

Test: xn = mol fraction of the nth substance listed
Conditions: 101 kPa, Liquid; for speed of sound: Single path-length method

COC(C)(C)C [2-methoxy-2-methylpropane] + c1ccccc1
Conditions	mass density [kg/m3]	speed of sound [m/s]
288.15 K, x1 = 0.052	874.712	1328.4
288.15 K, x1 = 0.111	864.515	1309.5
288.15 K, x1 = 0.202	849.416	1281.7
288.15 K, x1 = 0.303	833.719	1252.5
288.15 K, x1 = 0.397	819.912	1226.5
288.15 K, x1 = 0.5	805.496	1199.1
288.15 K, x1 = 0.596	792.712	1174.8
288.15 K, x1 = 0.698	779.712	1149.4
288.15 K, x1 = 0.791	768.503	1128.2
288.15 K, x1 = 0.902	755.682	1103
288.15 K, x1 = 0.95	750.294	1092.4
288.15 K, x1 = 1	744.861	1083.4
290.65 K, x1 = 0.052	872.067	1316.5
290.65 K, x1 = 0.111	861.888	1297.5
290.65 K, x1 = 0.202	846.799	1269.6
290.65 K, x1 = 0.303	831.129	1240.5
290.65 K, x1 = 0.397	817.328	1214.4
290.65 K, x1 = 0.5	802.92	1187.2
290.65 K, x1 = 0.596	790.137	1163
290.65 K, x1 = 0.698	777.135	1137.7
290.65 K, x1 = 0.791	765.921	1116.4
290.65 K, x1 = 0.902	753.094	1091.2
290.65 K, x1 = 0.95	747.701	1080.6
290.65 K, x1 = 1	742.259	1071.6
293.15 K, x1 = 0.052	869.419	1304.8
293.15 K, x1 = 0.111	859.259	1285.9
293.15 K, x1 = 0.202	844.19	1258
293.15 K, x1 = 0.303	828.533	1228.9
293.15 K, x1 = 0.397	814.742	1202.9
293.15 K, x1 = 0.5	800.338	1175.6
293.15 K, x1 = 0.596	787.557	1151.4
293.15 K, x1 = 0.698	774.552	1126.2
293.15 K, x1 = 0.791	763.334	1104.8
293.15 K, x1 = 0.902	750.497	1079.6
293.15 K, x1 = 0.95	745.1	1069
293.15 K, x1 = 1	739.654	1060
295.65 K, x1 = 0.052	866.766	1293
295.65 K, x1 = 0.111	856.624	1274.2
295.65 K, x1 = 0.202	841.573	1246.3
295.65 K, x1 = 0.303	825.932	1217.3
295.65 K, x1 = 0.397	812.151	1191.3
295.65 K, x1 = 0.5	797.75	1164
295.65 K, x1 = 0.596	784.966	1139.8
295.65 K, x1 = 0.698	771.959	1114.6
295.65 K, x1 = 0.791	760.733	1093.1
295.65 K, x1 = 0.902	747.886	1067.9
295.65 K, x1 = 0.95	742.485	1057.2
295.65 K, x1 = 1	737.036	1048.5
298.15 K, x1 = 0.052	864.111	1281.3
298.15 K, x1 = 0.111	853.986	1262.6
298.15 K, x1 = 0.202	838.954	1234.8
298.15 K, x1 = 0.303	823.323	1205.8
298.15 K, x1 = 0.397	809.552	1179.8
298.15 K, x1 = 0.5	795.155	1152.5
298.15 K, x1 = 0.596	782.366	1128.2
298.15 K, x1 = 0.698	769.356	1103
298.15 K, x1 = 0.791	758.126	1081.5
298.15 K, x1 = 0.902	745.267	1056.2
298.15 K, x1 = 0.95	739.86	1045.5
298.15 K, x1 = 1	734.406	1036.9
300.65 K, x1 = 0.052	861.451	1269.7
300.65 K, x1 = 0.111	851.345	1251
300.65 K, x1 = 0.202	836.329	1223.2
300.65 K, x1 = 0.303	820.71	1194.3
300.65 K, x1 = 0.397	806.945	1168.3
300.65 K, x1 = 0.5	792.548	1141
300.65 K, x1 = 0.596	779.76	1116.7
300.65 K, x1 = 0.698	766.742	1091.5
300.65 K, x1 = 0.791	755.506	1070
300.65 K, x1 = 0.902	742.638	1044.7
300.65 K, x1 = 0.95	737.224	1033.8
300.65 K, x1 = 1	731.766	1025.4
303.15 K, x1 = 0.052	858.785	1258
303.15 K, x1 = 0.111	848.697	1239.5
303.15 K, x1 = 0.202	833.698	1211.7
303.15 K, x1 = 0.303	818.089	1182.8
303.15 K, x1 = 0.397	804.33	1156.9
303.15 K, x1 = 0.5	789.936	1129.6
303.15 K, x1 = 0.596	777.144	1105.2
303.15 K, x1 = 0.698	764.119	1080
303.15 K, x1 = 0.791	752.877	1058.5
303.15 K, x1 = 0.902	739.994	1033.2
303.15 K, x1 = 0.95	734.576	1022.3
303.15 K, x1 = 1	729.112	1013.9
305.65 K, x1 = 0.052	856.117	1246.5
305.65 K, x1 = 0.111	846.045	1228
305.65 K, x1 = 0.202	831.061	1200.3
305.65 K, x1 = 0.303	815.461	1171.4
305.65 K, x1 = 0.397	801.707	1145.5
305.65 K, x1 = 0.5	787.314	1118.2
305.65 K, x1 = 0.596	774.518	1093.8
305.65 K, x1 = 0.698	761.485	1068.6
305.65 K, x1 = 0.791	750.234	1047.1
305.65 K, x1 = 0.902	737.34	1021.7
305.65 K, x1 = 0.95	731.914	1010.9
305.65 K, x1 = 1	726.444	1002.4
308.15 K, x1 = 0.052	853.44	1234.9
308.15 K, x1 = 0.111	843.388	1216.5
308.15 K, x1 = 0.202	828.417	1188.9
308.15 K, x1 = 0.303	812.827	1160
308.15 K, x1 = 0.397	799.075	1134.1
308.15 K, x1 = 0.5	784.683	1106.9
308.15 K, x1 = 0.596	771.88	1082.4
308.15 K, x1 = 0.698	758.841	1057.2
308.15 K, x1 = 0.791	747.582	1035.7
308.15 K, x1 = 0.902	734.673	1010.3
308.15 K, x1 = 0.95	729.241	999.43
308.15 K, x1 = 1	723.763	990.99
310.65 K, x1 = 0.052	850.759	1223.5
310.65 K, x1 = 0.111	840.726	1205.2
310.65 K, x1 = 0.202	825.767	1177.5
310.65 K, x1 = 0.303	810.187	1148.8
310.65 K, x1 = 0.397	796.438	1122.8
310.65 K, x1 = 0.5	782.044	1095.5
310.65 K, x1 = 0.596	769.234	1071.2
310.65 K, x1 = 0.698	756.187	1046
310.65 K, x1 = 0.791	744.918	1024.3
310.65 K, x1 = 0.902	731.995	998.9
310.65 K, x1 = 0.95	726.556	988.05
310.65 K, x1 = 1	721.069	979.62
313.15 K, x1 = 0.052	848.07	1212
313.15 K, x1 = 0.111	838.056	1193.8
313.15 K, x1 = 0.202	823.111	1166.3
313.15 K, x1 = 0.303	807.533	1137.4
313.15 K, x1 = 0.397	793.792	1111.5
313.15 K, x1 = 0.5	779.391	1084.2
313.15 K, x1 = 0.596	766.575	1059.8
313.15 K, x1 = 0.698	753.517	1034.6
313.15 K, x1 = 0.791	742.24	1013
313.15 K, x1 = 0.902	729.301	987.61
313.15 K, x1 = 0.95	723.852	976.7
313.15 K, x1 = 1	718.357	968.16
315.65 K, x1 = 0.052	845.378	1200.6
315.65 K, x1 = 0.111	835.381	1182.5
315.65 K, x1 = 0.202	820.447	1155
315.65 K, x1 = 0.303	804.877	1126.2
315.65 K, x1 = 0.397	791.135	1100.3
315.65 K, x1 = 0.5	776.733	1073
315.65 K, x1 = 0.596	763.908	1048.6
315.65 K, x1 = 0.698	750.84	1023.3
315.65 K, x1 = 0.791	739.55	1001.7
315.65 K, x1 = 0.902	726.593	976.23
315.65 K, x1 = 0.95	721.138	965.31
315.65 K, x1 = 1	715.636	956.8
318.15 K, x1 = 0.052	842.684	1189.4
318.15 K, x1 = 0.111	832.703	1171.3
318.15 K, x1 = 0.202	817.778	1143.8
318.15 K, x1 = 0.303	802.213	1115
318.15 K, x1 = 0.397	788.472	1089.2
318.15 K, x1 = 0.5	774.062	1061.8
318.15 K, x1 = 0.596	761.226	1037.4
318.15 K, x1 = 0.698	748.147	1012.1
318.15 K, x1 = 0.791	736.847	990.48
318.15 K, x1 = 0.902	723.87	964.92
320.65 K, x1 = 0.052	840.006	1178.4
320.65 K, x1 = 0.111	830.019	1160.1
320.65 K, x1 = 0.202	815.102	1132.6
320.65 K, x1 = 0.303	799.541	1103.9
320.65 K, x1 = 0.397	785.8	1078.1
320.65 K, x1 = 0.5	771.341	1050.4
320.65 K, x1 = 0.596	758.536	1026.2
320.65 K, x1 = 0.698	745.444	1001
320.65 K, x1 = 0.791	734.13	979.25
320.65 K, x1 = 0.902	721.133	953.72
323.15 K, x1 = 0.052	837.364	1168
323.15 K, x1 = 0.111	827.342	1149.2
323.15 K, x1 = 0.202	812.432	1121.7
323.15 K, x1 = 0.303	796.876	1093
323.15 K, x1 = 0.397	783.138	1067.2
323.15 K, x1 = 0.5	768.725	1040
323.15 K, x1 = 0.596	755.841	1015.2
323.15 K, x1 = 0.698	742.756	990.11
323.15 K, x1 = 0.791	731.411	968.17
323.15 K, x1 = 0.902	718.4	942.69
323.15 K, x1 = 0.95	712.917	931.73
323.15 K, x1 = 1	707.381	922.97
